Test results reported in ChEMBL document CHEMBL3351556, “Thee-component, one-pot synthesis of hexahydroazepino[3,4-b]indole and tetrahydro-1H-pyrido[3,4-b]indole derivatives and evaluation of their cytotoxicity” (Bioorg Med Chem Lett, 2014).
pIC50: −log10 of the molar value.

Legend:
Assay type in all cases: functional, cell-based
[1] = system: MCF7; assay: Antiproliferative activity against human MCF7 cells after 48 hrs by MTT/quantitative colorimetric method; conditions: MCF7, 48 h
[2] = system: HeLa; assay: Antiproliferative activity against human HeLa cells after 48 hrs by MTT/quantitative colorimetric method
[3] = system: DU-145; assay: Antiproliferative activity against human DU145 cells after 48 hrs by MTT/quantitative colorimetric method; conditions: DU-145, 48 h
[4] = system: A549; assay: Antiproliferative activity against human A549 cells after 48 hrs by MTT/quantitative colorimetric method; conditions: A549, 48 h

Row | pIC50 [1] | pIC50 [2] | pIC50 [3] | pIC50 [4] | SMILES
1 | 4.30 | 4.34 | 4.15 | < 4.00 | Cn1c2c(c3ccccc31)CCC(=O)N(c1ccc(F)cc1)C2C(=O)NC(C)(C)C (configuration not stated)
2 | 4.21 | 4.59 | 4.11 | < 4.00 | Cn1c2c(c3ccccc31)CC(=O)N(c1ccc(F)cc1)C2C(=O)NC(C)(C)C (configuration not stated)
3 | 4.06 | 4.02 | 4.20 | 4.31 | Cc1ccc(C)c(N2C(=O)Cc3c(n(C)c4ccccc34)C2C(=O)NC(C)(C)C)c1 (configuration not stated)
4 | 4.03 | 4.36 | 4.28 | < 4.00 | Cn1c2c(c3ccccc31)CCC(=O)N(c1cccc(F)c1)C2C(=O)NC1CCCCC1 (configuration not stated)
5 | 4.27 | < 4.00 | 4.09 | < 4.00 | Cn1c2c(c3ccccc31)CCC(=O)N(c1ccc(F)c(Cl)c1)C2C(=O)NC1CCCCC1 (configuration not stated)
6 | < 4.00 | < 4.00 | 4.02 | 4.10 | Cn1c2c(c3ccccc31)CC(=O)N(c1ccc(F)c(Cl)c1)C2C(=O)NC(C)(C)C (configuration not stated)
7 | < 4.00 | < 4.00 | < 4.00 | < 4.00 | Cc1ccc(C)c(N2C(=O)CCc3c(n(C)c4ccccc34)C2C(=O)NC2CCCCC2)c1 (configuration not stated)
8 | 4.30 | 4.32 | 4.05 | 4.23 | Cn1c2c(c3ccccc31)CCC(=O)N(c1ccc(F)cc1)C2C(=O)NC1CCCCC1 (configuration not stated)
9 | 4.02 | 4.60 | < 4.00 | 4.07 | Cn1c2c(c3ccccc31)CC(=O)N(c1cccc(F)c1)C2C(=O)NC1CCCCC1 (configuration not stated)
10 | 4.02 | < 4.00 | < 4.00 | < 4.00 | Cc1ccc(C)c(N2C(=O)Cc3c(n(C)c4ccccc34)C2C(=O)NC2CCCCC2)c1 (configuration not stated)
11 | 4.74 | 4.89 | 4.68 | 4.74 | Cn1c2c(c3ccccc31)CCC(=O)N(c1ccc(Cl)cc1)C2C(=O)NC(C)(C)C (configuration not stated)
12 | < 4.00 | 4.26 | 4.38 | 4.23 | Cn1c2c(c3ccccc31)CC(=O)N(c1ccc(Cl)cc1)C2C(=O)NC1CCCCC1 (configuration not stated)
13 | 4.30 | 4.96 | 4.33 | 4.21 | Cn1c2c(c3ccccc31)CC(=O)N(c1ccc(F)cc1)C2C(=O)NC1CCCCC1 (configuration not stated)
14 | 4.11 | 4.20 | 4.26 | < 4.00 | Cn1c2c(c3ccccc31)CCC(=O)N(c1ccc(Br)cc1)C2C(=O)NC1CCCCC1 (configuration not stated)
15 | 4.28 | 4.31 | 4.35 | < 4.00 | Cn1c2c(c3ccccc31)CC(=O)N(c1ccc(Br)cc1)C2C(=O)NC1CCCCC1 (configuration not stated)
16 | 4.54 | 4.92 | 4.89 | 4.57 | Cn1c2c(c3ccccc31)CCC(=O)N(c1ccc(Cl)cc1)C2C(=O)NC1CCCCC1 (configuration not stated)
17 | < 4.00 | 4.17 | 4.25 | 4.46 | Cn1c2c(c3ccccc31)CCC(=O)N(c1ccc(F)c(Cl)c1)C2C(=O)NC(C)(C)C (configuration not stated)
18 | 4.02 | 4.08 | < 4.00 | 4.20 | Cn1c2c(c3ccccc31)CC(=O)N(c1ccc(Cl)cc1)C2C(=O)NC(C)(C)C (configuration not stated)
